Test results: US20250296959A1, “B7-H3 TARGETING PEPTIDES AND CONSTRUCTS THEREOF” (Mariana Oncology Inc., priority 2024, published 2025)
Starred links: 1 amine or outer side, 2 acyl side, 3 side chain; linkers in the order of their positions; H or OH if unused. Positions of bridges follow the written chain, without caps; N, C: chain ends. Non-standard residues stand in square brackets, D forms with d. Residues, ends and D or L forms follow the SMILES beside them. *: point of attachment. Ala(piperidin-4-yl) = O=C([C@H](CC1CCN([*:3])CC1)N[*:1])[*:2]; DOTA = O=C(O)CN1CCN(CC(=O)O)CCN(CC(=O)*)CCN(CC(=O)O)CC1; Trp(5-Cl) = N[C@@H](Cc1c[nH]c2ccc(Cl)cc12)C(=O)O; Trp(5-F) = N[C@@H](Cc1c[nH]c2ccc(F)cc12)C(=O)O; 1Nal = N[C@@H](Cc1cccc2ccccc12)C(=O)O; Val(3-OH) = CC(C)(O)[C@H](N)C(=O)O; 4Pal = N[C@@H](Cc1ccncc1)C(=O)O; Cha = N[C@@H](CC1CCCCC1)C(=O)O; Chg = N[C@H](C(=O)O)C1CCCCC1; Tle = CC(C)(C)[C@H](N)C(=O)O; hLeu = CC(C)CC[C@H](N)C(=O)O; NMeC = CN[C@@H](CS)C(=O)O; NMeS = CN[C@@H](CO)C(=O)O

Molecular target: T1, human 4lg B7-H3 (Homo sapiens, UniProt Q5ZPR3)
T1 sequence (Q5ZPR3 29-534): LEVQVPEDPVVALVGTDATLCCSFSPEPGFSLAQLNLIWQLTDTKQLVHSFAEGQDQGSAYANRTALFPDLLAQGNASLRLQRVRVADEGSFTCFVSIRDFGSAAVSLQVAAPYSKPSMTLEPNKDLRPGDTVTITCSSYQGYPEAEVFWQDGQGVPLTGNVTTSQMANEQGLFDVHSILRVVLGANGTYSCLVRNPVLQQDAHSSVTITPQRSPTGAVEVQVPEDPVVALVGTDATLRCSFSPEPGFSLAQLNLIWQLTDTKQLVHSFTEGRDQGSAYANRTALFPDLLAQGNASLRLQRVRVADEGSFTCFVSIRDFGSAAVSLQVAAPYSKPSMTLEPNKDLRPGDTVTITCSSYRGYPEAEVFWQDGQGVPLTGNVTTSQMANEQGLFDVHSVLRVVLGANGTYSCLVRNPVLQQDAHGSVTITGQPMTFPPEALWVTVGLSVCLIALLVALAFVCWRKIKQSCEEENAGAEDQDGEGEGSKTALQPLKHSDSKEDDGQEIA
Assay: Affinity determination by surface plasmon resonance (SPR) to 4Ig B7-H3
Settings: SPR KD—25° C., 4Ig B7-H3; 25° C. flow cell temperature

`CC(=O)N[C@@H](CCC(C)C)C(=O)N[C@@H](Cc1ccc(O)cc1)C(=O)N[C@H]1CSSC[C@@H](C(=O)N[C@@H](Cc2c[nH]c3ccc(F)cc23)C(=O)N[C@@H](Cc2ccccc2)C(=O)N(C)[C@@H](CO)C(N)=O)NC(=O)[C@H](Cc2ccc(O)cc2)NC(=O)[C@H](C(C)C)NC(=O)[C@H](CC(=O)O)NC(=O)[C@H](Cc2ccncc2)NC(=O)[C@H](CCCCNC(=O)CN2CCN(CC(=O)O)CCN(CC(=O)O)CCN(CC(=O)O)CC2)NC(=O)CNC(=O)[C@H](C(C)C)NC1=O` [compound 228, Ac-hLeu-Y-C-V-G-Lys(DOTA)-4PyA-D-V-Y-C-5FW-F-NMeSer-CONH2] (Ac-[hLeu]YCVGK(DOTA)[4Pal]DVYC[Trp(5-F)]F[NMeS]-NH2; disulfide 3-11) was tested. Which Kd did it give?
Its Kd is 1 to 10 nM.

How did the Kd turn out when `CC(=O)N[C@@H](CCC(C)C)C(=O)N[C@@H](Cc1ccc(O)cc1)C(=O)N[C@H]1CSSC[C@@H](C(=O)N[C@@H](Cc2c[nH]c3ccc(F)cc23)C(=O)N[C@@H](Cc2ccccc2)C(=O)N[C@H](C(N)=O)C(C)(C)O)NC(=O)[C@H](Cc2ccc(O)cc2)NC(=O)[C@H](C(C)C)NC(=O)[C@H](CC(=O)O)NC(=O)[C@H](Cc2ccncc2)NC(=O)[C@H](CCCCNC(=O)CN2CCN(CC(=O)O)CCN(CC(=O)O)CCN(CC(=O)O)CC2)NC(=O)CNC(=O)[C@H](C(C)C)NC1=O` [compound 229, Ac-hLeu-Y-C-V-G-Lys(DOTA)-4PyA-D-V-Y-C-5FW-F-hydroxyVal-CONH2] (Ac-[hLeu]YCVGK(DOTA)[4Pal]DVYC[Trp(5-F)]F[Val(3-OH)]-NH2; disulfide 3-11) was run?
Its Kd is under 1 nM.

`CC[C@H](C)[C@@H]1NC(=O)[C@@H](NC(=O)[C@H](Cc2ccc(O)cc2)NC(=O)[C@H](CCC(C)C)NC(C)=O)CSSC[C@@H](C(=O)N[C@@H](Cc2c[nH]c3ccc(F)cc23)C(=O)N[C@@H](Cc2ccccc2)C(=O)N(C)[C@@H](CO)C(N)=O)NC(=O)[C@H](Cc2ccc(O)cc2)NC(=O)[C@H](C(C)C)NC(=O)[C@H](CC(=O)O)NC(=O)[C@H](CC2CCCCC2)NC(=O)[C@H](CCCCNC(=O)CN2CCN(CC(=O)O)CCN(CC(=O)O)CCN(CC(=O)O)CC2)NC(=O)CNC1=O` [compound 232, Ac-hLeu-Y-C-Ile-G-Lys(DOTA)-CHA-D-V-Y-C-5FW-F-NMeSer-CONH2] (Ac-[hLeu]YCIGK(DOTA)[Cha]DVYC[Trp(5-F)]F[NMeS]-NH2; disulfide 3-11) was tested. Which Kd did it give?
The Kd was 10 to 100 nM.

For `CC(=O)N[C@@H](CCC(C)C)C(=O)N[C@@H](Cc1ccc(O)cc1)C(=O)N[C@H]1CSSC[C@@H](C(=O)N[C@@H](Cc2c[nH]c3ccc(F)cc23)C(=O)N[C@@H](Cc2ccccc2)C(=O)N(C)[C@@H](CO)C(N)=O)NC(=O)[C@H](Cc2ccc(O)cc2)NC(=O)[C@H](C(C)C)NC(=O)[C@H](CC(=O)O)NC(=O)[C@H](CC2CCCCC2)NC(=O)[C@H](CCCCNC(=O)CN2CCN(CC(=O)O)CCN(CC(=O)O)CCN(CC(=O)O)CC2)NC(=O)CNC(=O)[C@H](C(C)C)NC1=O` [compound 233, Ac-hLeu-Y-C-V-G-Lys(DOTA)-CHA-D-V-Y-C-5FW-F-NMeSer-CONH2] (Ac-[hLeu]YCVGK(DOTA)[Cha]DVYC[Trp(5-F)]F[NMeS]-NH2; disulfide 3-11), which Kd is on record?
Its Kd is 10 to 100 nM.

`CC(=O)N[C@@H](CCC(C)C)C(=O)N[C@@H](Cc1ccc(O)cc1)C(=O)N[C@H]1CSSC[C@@H](C(=O)N[C@@H](Cc2c[nH]c3ccc(Cl)cc23)C(=O)N[C@@H](Cc2ccccc2)C(=O)N[C@H](C(=O)N[C@H](CCCCNC(=O)CN2CCN(CC(=O)O)CCN(CC(=O)O)CCN(CC(=O)O)CC2)C(N)=O)[C@@H](C)O)NC(=O)[C@H](Cc2ccc(O)cc2)NC(=O)[C@H](C(C)C)NC(=O)[C@H](CC(=O)O)NC(=O)[C@H](Cc2ccc(O)cc2)NC(=O)[C@H](CCCCN)NC(=O)CNC(=O)[C@H](C(C)(C)C)NC1=O` [compound 235, Ac-hLeu-Y-C-Tbg-G-K-Y-D-V-Y-C-5ClTrp-F-Thr-dLys(DOTA)-CONH2] (Ac-[hLeu]YC[Tle]GKYDVYC[Trp(5-Cl)]FT[dK](DOTA)-NH2; disulfide 3-11) was tested. Which Kd did it give?
The Kd was 1 to 10 nM.

With `CC(=O)N[C@@H](CCC(C)C)C(=O)N[C@@H](Cc1ccc(O)cc1)C(=O)N[C@H]1CSSC[C@@H](C(=O)N[C@@H](Cc2c[nH]c3ccc(F)cc23)C(=O)N[C@@H](Cc2ccccc2)C(=O)N(C)[C@@H](CO)C(=O)N[C@H](CCCCNC(=O)CN2CCN(CC(=O)O)CCN(CC(=O)O)CCN(CC(=O)O)CC2)C(N)=O)NC(=O)[C@H](Cc2ccc(O)cc2)NC(=O)[C@H](C(C)C)NC(=O)[C@H](CC(=O)O)NC(=O)[C@H](CC2CCCCC2)NC(=O)[C@H](CC2CCNCC2)NC(=O)CNC(=O)[C@H](C(C)C)NC1=O` [compound 236, Ac-hLeu-Y-C-V-G-PipAla-CHA-D-V-Y-C-5FW-F-NMeSer-dLys(DOTA)-CONH2] (Ac-[hLeu]YCVG[Ala(piperidin-4-yl)][Cha]DVYC[Trp(5-F)]F[NMeS][dK](DOTA)-NH2; disulfide 3-11) as the compound, how does the Kd read?
The Kd was under 1 nM.

How did the Kd turn out when `CC(=O)N[C@@H](CCC(C)C)C(=O)N[C@@H](Cc1ccc(O)cc1)C(=O)N(C)[C@H]1CSSC[C@@H](C(=O)N[C@@H](Cc2c[nH]c3ccc(F)cc23)C(=O)N[C@@H](Cc2ccccc2)C(=O)N[C@H](C(=O)N[C@H](CCCCNC(=O)CN2CCN(CC(=O)O)CCN(CC(=O)O)CCN(CC(=O)O)CC2)C(N)=O)[C@@H](C)O)NC(=O)[C@H](Cc2ccc(O)cc2)NC(=O)[C@H](C(C)C)NC(=O)[C@H](CC(=O)O)NC(=O)[C@H](Cc2ccc(O)cc2)NC(=O)[C@H](CCCCN)NC(=O)CNC(=O)[C@H](C(C)C)NC1=O` [compound 237, Ac-hLeu-Y-NMeCys-V-G-K-Y-D-V-Y-C-5FW-F-Thr-dLys(DOTA)-CONH2] (Ac-[hLeu]Y[NMeC]VGKYDVYC[Trp(5-F)]FT[dK](DOTA)-NH2; disulfide 3-11) was run?
Its Kd is 1 to 10 nM.

With `CC(=O)N[C@@H](CCC(C)C)C(=O)N[C@@H](Cc1ccc(O)cc1)C(=O)N[C@H]1CSSC[C@@H](C(=O)N[C@@H](Cc2c[nH]c3ccc(F)cc23)C(=O)N[C@@H](Cc2ccccc2)C(=O)N[C@H](C(=O)N[C@H](CCCCNC(=O)CN2CCN(CC(=O)O)CCN(CC(=O)O)CCN(CC(=O)O)CC2)C(N)=O)[C@@H](C)O)NC(=O)[C@H](Cc2ccc(O)cc2)NC(=O)[C@H](C(C)C)NC(=O)[C@H](CC(=O)O)NC(=O)[C@H](Cc2ccncc2)NC(=O)[C@H](CCCCN)NC(=O)CNC(=O)[C@H](C(C)C)NC1=O` [compound 240, Ac-hLeu-Y-C-V-G-K-4PyA-D-V-Y-C-5FW-F-Thr-dLys(DOTA)-CONH2] (Ac-[hLeu]YCVGK[4Pal]DVYC[Trp(5-F)]FT[dK](DOTA)-NH2; disulfide 3-11) as the compound, how does the Kd read?
The Kd was under 1 nM.

Which Kd does the source give for `CC(=O)N[C@@H](CCC(C)C)C(=O)N[C@@H](Cc1ccc(O)cc1)C(=O)N[C@H]1CSSC[C@@H](C(=O)N[C@@H](Cc2cccc3ccccc23)C(=O)N[C@@H](Cc2ccccc2)C(=O)N(C)[C@@H](CO)C(=O)N[C@H](CCCCNC(=O)CN2CCN(CC(=O)O)CCN(CC(=O)O)CCN(CC(=O)O)CC2)C(N)=O)NC(=O)[C@H](C2CCCCC2)NC(=O)[C@H](C(C)C)NC(=O)[C@H](CC(=O)O)NC(=O)[C@H](Cc2ccncc2)NC(=O)[C@H](CCCCN)NC(=O)CNC(=O)[C@H](C(C)(C)C)NC1=O` [compound 243, Ac-hLeu-Y-C-Tbg-G-K-4PyA-D-V-Chg-C-1Nal-F-NMeSer-dLys(DOTA)-CONH2] (Ac-[hLeu]YC[Tle]GK[4Pal]DV[Chg]C[1Nal]F[NMeS][dK](DOTA)-NH2; disulfide 3-11) here?
The Kd was 10 to 100 nM.
